Experimental data taken from patent US8044042B2, “Thienotriazolodiazepine compound and medicinal use thereof” (Mitsubishi Tanabe Pharma Corporation, priority 2005, dated 2011).
Like-named read-outs stand apart in the source and are kept apart here.

Tests used:
[1] = tested on: CD28-dependent T cell growth; assay: Mouse T cell proliferation stimulated with anti-CD28 antibody and PMA (tritiumthymidine uptake); assay type: cell-based; conditions: for IC50: BALB/c mouse T cells, 10 ng/mL PMA and 250 ng/mL anti-CD28 antibody, tritiumthymidine uptake, read-out: CD28-dependent T cell growth suppressive action (IC50); for CD28-dependent T cell growth suppressive action (in words): mouse T cells stimulated with PMA and anti-CD28 antibody
Procedure: The spleen was aseptically isolated from 6-7-week-old male BALB/c mice (CHARLES RIVER LABORATORIES JAPAN, INC.), and splenocyte suspension was prepared using RPMI1640 medium (manufactured by Sigma-Aldrich Ltd.). After hemolysis by a hypotonic treatment using a mixed solution of 0.83% aqueous ammonium chloride and Tris-HCl buffer (pH 7.65) at 9:1, a T cell concentrated fraction was obtained using a T cell concentrated column (manufactured by R&D systems). A cell suspension prepared using RPMI1640 medium containing 10% fetal calf serum (FCS, manufactured by Sigma-Aldrich Ltd.) was added to a flat-bottomed 96 well microtest plate (manufactured by Becton, Dickinson and Company) at 5×10^5 cells/well. Furthermore, a test compound diluted with a medium to the final concentration of 1-10000 nmol/L, 10 ng/mL PMA (manufactured by Sigma-Aldrich Ltd.) and 250 ng/mL anti-CD28 antibody (manufactured by BD pharmingen) were added, and the mixture was cultured under the conditions of 37° C., 5% carbon dioxide, 95% air for 20 hr. After the completion of culture, tritiumthymidine (specific activity: […], manufactured by MP Biochemicals) was added at 18.5 kBq/well, and the mixture was further cultured for 4 hr. Then, the cells were recovered in a glass fiber filter using a cell harvester (manufactured by Molecular Devices Corp.), the radioactivity taken into the cells was measured using a plate scintillation counter (microbeta 1460, manufactured by PerkinElmer), based on which the mouse T cell growth induced by stimulation with PMA and anti-CD28 antibody was measured. To be specific, suppressing rate (%)=(1−(radioactivity (cpm) of well added with test compound)/(radioactivity (cpm) of well without addition of test compound))×100 was calculated from the average amount of tritiumthymidine uptake (cpm) of T cells in each well added with various concentrations of test compound. In addition, based on the dose response curve obtained by plotting the average tritiumthymidine uptake amount (cpm) or suppressing rate on the vertical axis and the concentration on the transverse axis, the concentration of the compound (IC50) suppressing the value to 50% of that of the control group was determined by nonlinear regression.

[2] = tested on: Biphasic Auricular Edema in Egg Albumin-Induced Mouse; assay: Egg albumin-induced mouse biphasic auricular edema; assay type: in vivo; conditions: for suppressing rate (%) of auricular edema: 24 hr later, P <0.05; for suppressive action on edema (in words): 24 hr after induction with egg albumin
Procedure: Using saline (0.5 ml) containing egg albumin (10 μg, manufactured by Sigma-Aldrich Ltd.) and 1 mg of aluminum hydroxide gel, 6 to 7-week-old male BALB/c mice (CHARLES RIVER LABORATORIES JAPAN, INC.) were intraperitoneally immunized. Two weeks later, egg albumin (1.25 μg) was intradermally injected into the auricle of the mice for challenge, whereby biphasic auricular edema was induced 1 hr and 24 hr after the challenge. The compound of the present invention or a pharmaceutically acceptable salt thereof was suspended or dissolved in 0.5% carboxymethylcellulose, and repetitively administered orally at a dose of 0.01-30 mg/kg body weight for 3 days, from 2 days before the antigen challenge to the day of challenge, using an oral gavage needle. As for this model, the thickness of the auricle of the mouse was measured using a dial gauge (manufactured by Ozaki MFG. Co. Ltd.) and used as an index of auricular edema. As regards the thickness of the auricle, each group (n=8) was evaluated using an average value and mean error, with a group administered only with a vehicle being control, and t-test was used for statistical analysis, wherein p value of 0.05 or below was determined to be significant.

[3] = tested on: Mouse Graft-Versus-Host Reaction (GvHR); assay: Mouse graft-versus-host reaction (GvHR); assay type: in vivo; conditions: P <0.05 vs vehicle
Procedure: Cyclophosphamide (manufactured by Shionogi & Co., Ltd.) is administered to male BDF1 recipient mouse (8-week-old, CHARLES RIVER LABORATORIES JAPAN, INC.) at a dose of 300 mg/kg from the tail vein as a pretreatment at 24 hr prior to injection of spleen cells. The spleen was aseptically isolated from male C57BL/6 donor mouse (8-week-old, CHARLES RIVER LABORATORIES JAPAN, INC.), minced in RPMI1640 medium (manufactured by Sigma-Aldrich Ltd.), and passed through a stainless mesh to give a splenocyte single cell suspension. After removal of red blood cells by a hypotonic treatment using a mixed solution of 0.83% aqueous ammonium chloride and Tris-HCl buffer (pH 7.65) at 9:1, splenocytes were washed and suspended in physiological saline to give a splenocyte suspension. The prepared cells were injected at 1×10^8 cells/mouse into the tail vein to induce acute GvHR. The compound of the present invention or a pharmaceutically acceptable salt thereof was suspended or dissolved in 0.5% carboxymethylcellulose, and repetitively administered orally at a dose of 3-30 mg/kg body weight for 28 days from the day of splenocyte injection, and the influence on the survival time was evaluated. After induction of acute GvHR, the survival of each individual was determined every day, and the day of confirmed death was taken as the survival time of each individual. As for the survival time, log-rank test analysis was performed using the group administered with vehicle alone as a control, and the multiplicity was adjusted by the Holm's method, wherein p value of 0.05 or below was determined to be significant.

[4] = tested on: TYPE II Collagen-Induced Arthritis in DBA/1J Mouse; assay: Type II collagen-induced arthritis in DBA/1J mouse; assay type: in vivo; conditions: 840 h; for inhibition in vivo at 10 mg/kg: po, read-out: suppressing rate (%) of arthritis score; for inhibition in vivo at 3 mg/kg: 3 mg/kg oral, 2 weeks from booster, average arthritis score at 35 days after primary immunization, P <0.05, read-out: suppressing rate (%) of arthritis score
Procedure: Bovine Type II collagen (purchased from collagen technical workshop) (100-200 μg) was mixed with complete Freund's adjuvant (manufactured by Sigma-Aldrich Ltd.) containing killed tuberculosis H37Ra. Using the resulting emulsion, 6 to 7-week-old male DBA/1J mice (CHARLES RIVER LABORATORIES JAPAN, INC.) were subcutaneously immunized at the tail root twice at 3 week intervals, whereby arthritis was developed. A test compound was suspended or dissolved in 0.5% carboxymethylcellulose (manufactured by Sigma-Aldrich Ltd.), and repetitively administered orally at a dose of 0.1-30 mg/kg body weight using an oral gavage needle for 2 weeks from the day of booster. As to this model, the symptoms of arthritis of four limbs were evaluated based on the following judgment criteria using the scores of from 0 to 4. The arthritis score of each mouse was shown by the total of the scores of four limbs (maximum: 16 points).
As regards the arthritis score, each group (n=5-6) was evaluated using an average value and mean error, with a group administered only with a vehicle being control, and Mann-Whitney U test was used for statistical analysis, wherein p value of 0.05 or below was determined to be significant. In the following, the suppressive action of the compound of the present invention on mouse collagen induced arthritis is shown by the suppressing rate (%) (1−(average arthritis score of compound administration group)/(average arthritis score of control group)×100) calculated from the average arthritis score at 35 days after the primary immunization.

[5] = tested on: Experimental Autoimmune Encephalomyelitis in SJL/J Mouse; assay: Experimental autoimmune encephalomyelitis in SJL/J mouse; assay type: in vivo; conditions: 3 weeks from immunization, average EAE score at 14 days after immunization, P <0.05
Procedure: The 139th-151st peptides (50 μg) of rat-derived proteolipid protein (manufactured by Bachem) was mixed with complete Freund's adjuvant containing killed tuberculosis H37Ra. Using the resulting emulsion, 10-week-old female SJL/J mice (CHARLES RIVER LABORATORIES JAPAN, INC.) were subcutaneously immunized on the back, whereby experimental autoimmune encephalomyelitis (EAE) was developed. The compound of the present invention or a pharmaceutically acceptable salt thereof was suspended or dissolved in 0.5% carboxymethylcellulose (manufactured by Sigma-Aldrich Ltd.), and repetitively administered orally at a dose of 3-30 mg/kg body weight using an oral gavage needle for 3 weeks from the day of immunization. As to this model, the symptoms of EAE were evaluated based on the following judgment criteria using the scores of from 0 to 5.
As regards the EAE score, each group (n=10) was evaluated using an average value and mean error, with a group administered only with a vehicle being control, and Mann-Whitney U test was used for statistical analysis, wherein p value of 0.05 or below was determined to be significant. In the following, the suppressive action of the compound of the present invention on EAE is shown by the suppressing rate (%) calculated from the average EAE score at 14 days after the immunization. […] From the results, the compound is considered effective for encephalomyelitis, multiple sclerosis and the like.

[6] = 3 mg/kg oral for 28 days from splenocyte injection

| SMILES | CD28-dependent T cell growth suppressive action (in words) [1] | IC50 ([1]; T-cell) | inhibition in vivo at 3 mg/kg [4] | further results |
| --- | --- | --- | --- | --- |
| COC(=O)C[C@@H]1N=C(c2ccc(-c3ccccc3)cc2)c2c(sc(C)c2C)-n2c(C)nnc21 [Example 61, Methyl (S)-{4-biphenyl-2,3,9-trimethyl-6H-thieno[3,2-f][1,2,4]triazolo[4,3-a][1,4]diazepin-6-yl}acetate] | have a CD28-dependent T cell growth suppressive action |  |  | IC50 [1]: 55 nM |
| Cc1sc2c(c1C)C(c1ccc(NCc3ccccc3)cc1)=NCc1nnc(C)n1-2 [Example 335, 4-(4-benzylaminophenyl)-2,3,9-trimethyl-6H-thieno[3,2-f][1,2,4]triazolo[4,3-a][1,4]diazepine] | have a CD28-dependent T cell growth suppressive action | 190 nM |  | suppressing rate (%) of auricular edema ([2]; 10 mg/kg oral for 3 days): 45.1%; suppressive action on edema (in words) ([2]; 10 mg/kg): significant suppressive action on edema; median survival time ([3]; 30 mg/kg oral for 28 days from splenocyte injection): 36.5 days; inhibition in vivo at 10 mg/kg [4]: 65.5%; suppressing rate (%) of EAE score ([5]; 30 mg/kg oral): 53% |
| COC(=O)C[C@@H]1N=C(c2ccc(NC(=O)CCc3ccccc3)cc2)c2c(sc(C)c2C)-n2c(C)nnc21 [Example 311, Methyl (S)-{2,3,9-trimethyl-4-[4-(3-phenylpropionylamino)phenyl]-6H-thieno[3,2-f][1,2,4]triazolo[4,3-a][1,4]diazepin-6-yl}acetate] | have a CD28-dependent T cell growth suppressive action | 25 nM | 85.2% |  |
| COC(=O)C[C@@H]1N=C(c2ccc(-c3cccc(C#N)c3)cc2)c2c(sc(C)c2C)-n2c(C)nnc21 [Example 8, Methyl (S)-{4-(3′-cyanobiphenyl-4-yl)-2,3,9-trimethyl-6H-thieno[3,2-f][1,2,4]triazolo[4,3-a][1,4]diazepin-6-yl}acetate] | have a CD28-dependent T cell growth suppressive action | 26 nM | 50% | suppressing rate (%) of auricular edema ([2]; 3 mg/kg oral for 3 days): 40.5%; suppressive action on edema (in words) ([2]; 3 mg/kg): significant suppressive action on edema; median survival time [3, 6]: 56 days; suppressing rate (%) of EAE score ([5]; 10 mg/kg oral): 98% |
| Cc1sc2c(c1C)C(c1ccc(-c3cccc(C#N)c3)cc1)=NCc1nnc(C)n1-2 [Example 253, 4-(3′-cyanobiphenyl-4-yl)-2,3,9-trimethyl-6H-thieno[3,2-f][1,2,4]triazolo[4,3-a][1,4]diazepin] | have a CD28-dependent T cell growth suppressive action | 100 nM |  | inhibition in vivo at 10 mg/kg [4]: 46.4% |
| COC(=O)C[C@@H]1N=C(c2ccc(NCc3ccccc3)cc2)c2c(sc(C)c2C)-n2c(C)nnc21 [Example 167, Methyl (S)-{4-(4-benzylaminophenyl)-2,3,9-trimethyl-6H-thieno[3,2-f][1,2,4]triazolo[4,3-a][1,4]diazepin-6-yl}acetate] | have a CD28-dependent T cell growth suppressive action | 29 nM | 61.4% | suppressing rate (%) of auricular edema ([2]; 3 mg/kg oral for 3 days): 30.1%; suppressive action on edema (in words) ([2]; 3 mg/kg): significant suppressive action on edema; median survival time [3, 6]: 56 days; suppressing rate (%) of EAE score ([5]; 3 mg/kg oral): 62% |
| COC(=O)C[C@@H]1N=C(c2ccc(Nc3ccccc3)cc2)c2c(sc(C)c2C)-n2c(C)nnc21 [Example 120, Methyl (S)-{2,3,9-trimethyl-4-(4-phenylaminophenyl)-6H-thieno[3,2-f][1,2,4]triazolo[4,3-a][1,4]diazepin-6-yl}acetate] | have a CD28-dependent T cell growth suppressive action | 1.1 nM | 53.1% |  |
| C=CC[C@@H]1/C=C(\C)C[C@H](C)C[C@H](OC)[C@H]2O[C@@](O)(C(=O)C(=O)N3CCCC[C@H]3C(=O)O[C@H](/C(C)=C/[C@@H]3CC[C@@H](O)[C@H](OC)C3)[C@H](C)[C@@H](O)CC1=O)[C@H](C)C[C@@H]2OC [Tacrolimus, tacrolimus, reference compound] |  | > 1000 nM |  | inhibition of T cell growth at 1 μM (in words) ([1]; 1 μM, calcineurin inhibitor): hardly inhibits the growth even at 1 μM |
